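96-well plates; 48 h exposure; 5 concentrations. Endpoints by linear interpolation between flanking doses. Not reached: highest tested concentration assigned. Abbreviation: GI50, concentration required for 50% inhibition of growth. Definition used: TGI = concentration required for complete inhibition of growth.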
What was measured:
Experiment in all cases: inhibition of tumour cell growth, NCI panel, 48 h
HL-60(TB) leukemia = tested on: HL-60(TB) leukemia
HOP-62 NSCLC = tested on: HOP-62 NSCLC
IGROV1 ovarian = tested on: IGROV1 ovarian
NCI-H226 lung = tested on: NCI-H226 lung
NCI-H522 lung = tested on: NCI-H522 lung
NCI/ADR-RES ovarian = tested on: NCI/ADR-RES ovarian
OVCAR-3 ovarian = tested on: OVCAR-3 ovarian
RXF 393 renal = tested on: RXF 393 renal
TK-10 renal = tested on: TK-10 renal
UO-31 renal = tested on: UO-31 renal

| Structure (SMILES) | GI50 (HL-60(TB) leukemia) [nM] | TGI (HL-60(TB) leukemia) [nM] | GI50 (HOP-62 NSCLC) [nM] | TGI (HOP-62 NSCLC) [nM] | GI50 (IGROV1 ovarian) [nM] | TGI (IGROV1 ovarian) [nM] | GI50 (NCI-H226 lung) [nM] | TGI (NCI-H226 lung) [nM] | GI50 (NCI-H522 lung) [nM] | TGI (NCI-H522 lung) [nM] | GI50 (NCI/ADR-RES ovarian) [nM] | TGI (NCI/ADR-RES ovarian) [nM] | GI50 (OVCAR-3 ovarian) [nM] | TGI (OVCAR-3 ovarian) [nM] | GI50 (RXF 393 renal) [nM] | TGI (RXF 393 renal) [nM] | GI50 (TK-10 renal) [nM] | TGI (TK-10 renal) [nM] | GI50 (UO-31 renal) [nM] | TGI (UO-31 renal) [nM] |
| --- | --- | --- | --- | --- | --- | --- | --- | --- | --- | --- | --- | --- | --- | --- | --- | --- | --- | --- | --- | --- |
| COc1ccc(-c2ccc(-c3ccc(C(=N)N)o3)o2)cc1 | 1230 | 3160 | 1510 | 4510 | 1730 | 7030 | 22000 | 42800 | 1090 | 3480 | 1880 | 10100 | 924 | 2740 | 2120 | 8810 | 7970 | 21000 | 1720 | 3790 |
| O=C1c2ccccc2-c2c1c1ccccc1c(=O)n2CCCn1ccnc1 | 200 | 2180 | 2720 | 13000 | 2860 | > 100000 | 1350 | 3040 | 2140 | > 100000 | 1810 | 6090 |  |  | 6150 | > 100000 | 1970 | 6830 | 359 | > 100000 |
| CCNC(=O)O[C@H]1CN[C@H](C#Cc2cc3ncnc(Nc4ccc(OCc5cccc(F)c5)c(Cl)c4)c3s2)C1 | 5710 | > 19400 | 14900 | > 25000 | 2660 | > 25000 | 7090 | > 21100 | 371 | 5910 | 6190 | > 25000 | 3770 | 16700 | 4750 | > 17300 | 198 | 11400 | 1490 | > 18400 |
| Cc1cnc(C(=O)Nc2nc3ccc(S(=O)(=O)Nc4ccc(C5(C(F)(F)F)CC5)cc4)cc3[nH]2)cn1 | 296 | 924 | 622 | 6710 | 606 | 5020 | 566 | 6340 | 251 | 11200 | 260 | 1690 | 250 | 1340 | 226 | 1110 | 1480 | 12000 | 481 | 6200 |
| C=C1C(=O)O[C@H]2[C@H]1CC/C(Cn1cc(-c3ccccc3C(F)(F)F)nn1)=C\CC[C@@]1(C)O[C@@H]21 | 2580 | 10100 | 4720 | 18700 | 1810 | 3860 | 1730 | 4690 | 1380 | 3130 | 2990 | 15100 | 1040 | 2330 | 1070 | 2320 | 1710 | 3200 | 1230 | 2610 |
| COc1cc(-c2nc(SCCC(C)C)nc(Nc3ccc(S(N)(=O)=O)cc3)c2C#N)cc(OC)c1OC | 2300 | 5860 | 4120 | > 100000 | 3390 | > 100000 | 1670 | 4640 | 3520 | > 100000 | 3030 | > 100000 | 2380 | 6120 | 1830 | 3970 | 3500 | > 100000 | 1820 | > 100000 |
| CCN(CC)c1ccc(C(=O)c2ccc(N(CC)CC)cc2)cc1 | 407 | 2500 | 805 | 98200 | 602 | > 100000 | 2540 | 61600 | 278 | 1670 | 355 | 1890 | 264 | 706 | 444 | 1630 | 1330 | 68900 | 680 | 64200 |
| CSc1nc(SC)c2c(CO)c(Br)n(Cc3ccccc3)c2n1 |  | > 100000 |  | 80100 |  | 39300 |  | 39300 |  | 68800 |  | > 100000 |  | > 100000 |  | 60300 |  | 79400 |  | 44400 |
| Cc1cc(C)c(-n2c(-c3ccc(Br)cc3)cs/c2=N\N=C2C=C(C(C)(C)C)C(=O)C(C(C)(C)C)=C2)c(C)c1 |  | > 100000 |  | > 78600 |  | > 100000 |  | > 100000 |  | > 100000 |  | > 100000 |  | > 100000 |  | 81800 |  | > 100000 |  | > 100000 |
| COc1cc2c(cc1OC)C13CCN4CC5CCOC6CC(=O)N2C1C6C5CC43 (stereo unspecified) |  | > 100000 |  | > 100000 |  | > 100000 |  | > 100000 |  | > 100000 |  | > 100000 |  | > 100000 |  | > 100000 |  | > 100000 |  | > 100000 |
| CN(C)CCCNC(=O)c1cc(NC(=O)c2cc(NC(=O)CCNS(=O)(=O)c3ccc4c(c3)C(=O)c3ccccc3C4=O)cn2C)cn1C | > 100000 | > 100000 |  |  | > 100000 | > 100000 | > 100000 | > 100000 | > 100000 | > 100000 | > 100000 | > 100000 | > 100000 | > 100000 | > 100000 | > 100000 | 74200 | > 100000 | > 100000 | > 100000 |
| O=C1C(=O)c2cccnc2-c2ncccc21 | 180 | 443 | 225 | 882 | 133 | 413 | 696 | 2050 | 126 | 332 | 89.8 | 281 | 193 | 503 | 76.8 | 266 | 1240 | 2600 | 159 | 486 |
| O=C1CCc2c(sc3[nH]c(=S)n(Cc4ccc(Cl)cc4)c(=O)c23)C1 | 347 | 1810 | 1470 | > 100000 | 454 | > 100000 | 1990 | 14500 | 340 | 1680 | 408 | > 41800 | 385 | > 55600 | 401 | 5050 | 988 | > 100000 | 277 | 1210 |

Source: PubChem BioAssay (NCI)
